From patent US8425880B1, “Metal-containing materials for treatment of bacterial conditions” (priority 2007, dated 2013)
Where “and” joins values, the source holds several entries; their conditions need not be identical. Equal values may be shown once.

Key:
C. difficile = assay type: cell-based, Clostridium difficile; details: for Microdilution MIC: pH 4
[1] = test system: C. difficile spores (strain ATCC 43596); experiment: Sporicidal assay; assay type: cell-based, Clostridium difficile; design: key to growth after 5-6 days of subculture: presence (+) or absence (−) of growth after 5-6 days of subculture; presence (+) or absence (−) of growth after 5-6 days of subculture
Procedure: Louis, Mo.). […] Silver preparations were filtered at 0.2 microns and stored in the dark at room temperature. Spore germination was induced as previously described in, for example, […] and Sonenshein A L. Mol Microbiol. 2003 48(3): 811-821; and Ionesco H. C R Acad Sci Hebd […]. 25; 287(6):659-61. C. difficile suspended in BHI was heat-killed at 80° C. for 10 minutes, and germination then stimulated by a 30-min incubation at 50° C. in the presence of 165 μM thioglycollate, followed by a 15-min incubation at 37° C. in the presence of 4 mg/ml lysozyme.

C. perfringens = assay type: cell-based, Clostridium perfringens

Compound | MIC (C. difficile) | Microdilution MIC (C. difficile) | inactivation of C. difficile spores [1] | growth after 5-6 days of subculture ([1]; Expt 2, Conc. 0.00005%) | growth after 5-6 days of subculture ([1]; Expt 2, Conc. 0.0005%) | growth after 5-6 days of subculture ([1]; Expt 2, Conc. 0.005%) | growth after 5-6 days of subculture ([1]; Expt 2, Conc. 0.05%) | growth after 5-6 days of subculture ([1]; Expt 3, Conc. 0.01%) | growth after 5-6 days of subculture ([1]; Expt 3, Conc. 0.03%) | MIC (C. perfringens) | growth after 5-6 days of subculture ([1]; Expt 1, Conc. 0.02%) | growth after 5-6 days of subculture ([1]; Expt 1, Conc. 0.2%) | growth after 5-6 days of subculture ([1]; Expt 1, Conc. 2%)
O=[N+]([O-])[O-].[Ag+] [AgNO3, Silver nitrate] | 18 (8-23) ppm (μg/ml) | 18 ppm and 9 ppm | inactivated the spores of C. difficile | + | − | − | − | − | − | 92 ppm (μg/ml) |  |  | 
O=CCCCC=O [Glutaraldehyde, glutaraldehyde] |  |  |  |  |  |  |  |  |  |  | + | − | −
silver (I) oxide [Ag2O] |  | 16 ppm and 31 ppm | inactivated the spores of C. difficile |  |  |  |  | − | − |  |  |  | 
